PubChem BioAssay (NCI)
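Briefly, cells in 96-well plates were exposed to five compound concentrations for 48 h, and endpoints were estimated by linear interpolation. TGI denotes the concentration required for complete inhibition of growth.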 Where a SMILES comes first, the peptide text is derived from it. Bridges are numbered along the chain shown (N, C = ends). The star is where a group is joined. Cbz = O=C(OCc1ccccc1)*

Columns and labels:
Experiment in all cases: growth of human tumour cells (NCI), 48 h
K-562 leukemia = test system: K-562 leukemia
DMS 273 small cell lung = test system: DMS 273 small cell lung
DLD-1 colon = test system: DLD-1 colon
SN12C renal = test system: SN12C renal
NCI-H226 lung = test system: NCI-H226 lung
HOP-62 NSCLC = test system: HOP-62 NSCLC
MOLT-4 leukemia = test system: MOLT-4 leukemia
A549 NSCLC = test system: A549 NSCLC
MCF7 breast = test system: MCF7 breast
DU-145 prostate = test system: DU-145 prostate
HS 578T breast = test system: HS 578T breast

Compound | TGI (K-562 leukemia) [µM] | TGI (DMS 273 small cell lung) [µM] | TGI (DLD-1 colon) [µM] | TGI (SN12C renal) [µM] | TGI (NCI-H226 lung) [µM] | TGI (HOP-62 NSCLC) [µM] | TGI (MOLT-4 leukemia) [µM] | TGI (A549 NSCLC) [µM] | TGI (MCF7 breast) [µM] | TGI (DU-145 prostate) [µM] | TGI (HS 578T breast) [µM]
CC(=O)Nc1ccc(C(=O)N2N=C(C)/C(=C/c3cccc([N+](=O)[O-])c3)C2=O)cc1 | > 100 | > 100 | > 100 | > 100 | > 100 | > 100 | > 100 | > 100 | – | – | –
C=CCC1(CC)C(=O)NC(=O)NC1=O | > 100 | > 100 | – | > 100 | > 100 | > 100 | > 100 | > 100 | – | – | –
COC(=O)C1=C(C)N(NC(=O)c2ccccc2)C2(O)CCCC(=O)C12C (stereo not drawn) | – | > 100 | > 100 | > 100 | > 100 | – | – | > 100 | – | – | –
COc1ccc2c(c1OC)C(=O)O[C@@H]2[C@H]1c2cc3c(cc2CCN1C)OCO3 | > 100 | – | – | > 100 | > 100 | > 100 | > 100 | > 100 | > 100 | > 100 | > 100
Oc1nc(N/N=C/c2ccccc2)[nH]c1/C=C1\C=Nc2ccccc21 | > 100 | – | – | > 100 | > 100 | > 100 | > 100 | > 100 | > 100 | > 100 | > 100
CNC(=S)N/N=C(\C)c1nc2ncccc2[nH]1 | > 100 | – | – | > 100 | > 90.9 | > 100 | > 100 | > 100 | > 100 | > 100 | > 84.3
CC1(C)CCCCCCCCCC(C)(CCCCCCCCCCCCO)C1=O (stereo not drawn) | 54.3 | – | – | 31.4 | 22.5 | 47.5 | 76.7 | 29.9 | 30.5 | 32 | 38
C=C(Br)CNCC(=C)Br | > 100 | – | – | > 100 | > 100 | > 100 | > 100 | > 100 | > 100 | > 100 | > 100
N#CC1(c2ccccc2)CCN(C2(c3ccccc3)CCCCC2)CC1 | > 100 | – | – | > 100 | > 100 | > 100 | > 100 | > 100 | > 100 | > 100 | > 100
CC(C)(C)c1cc(C(=O)/C=C/c2ccn[nH]2)cc(C(C)(C)C)c1O | 10.3 | – | – | 3.6 | 11.6 | 9.52 | 10.1 | 9.8 | 4.78 | 7.52 | 9.22
O=C1c2ccccc2-c2nc(-c3ccccc3)cc3c2c1nc1ccccc13 | > 100 | – | – | 32.8 | 54.5 | 47.2 | 36.4 | 52.9 | 21.9 | 29.6 | 63.9
COc1cc(/C=C2\Cc3cc(OC)c(OC)cc3C2=O)cc(OC)c1 | > 100 | – | – | > 100 | > 100 | > 80.1 | > 100 | > 100 | > 100 | > 100 | > 100
COc1nc(OC)nc(-c2cccc(F)c2)n1 | 53.7 | – | – | 31.5 | 31.1 | 45.7 | > 100 | 52.6 | 45.1 | 26.8 | 93.5
CC(=O)Nc1ccc(C(=O)NN2C(=O)C(Cl)C2c2ccc(O)cc2)cc1 (stereo not drawn) | > 100 | > 100 | > 100 | > 100 | > 100 | > 100 | > 100 | > 100 | – | – | –
COC(=O)C1CCCCNC(=O)CCC(NC(=O)OCc2ccccc2)C(=O)N1 (stereo not drawn) (Cbz-Glu-Lys-OMe; lactam 1-2; configuration not given here) | > 100 | – | – | > 100 | > 100 | > 100 | > 100 | > 100 | > 100 | > 100 | > 100
CN(/N=N/c1nc[nH]c1C(N)=O)C1CCCCC1 | – | > 100 | > 100 | > 100 | > 100 | > 100 | > 100 | > 100 | – | – | –
O/N=C1/C2CC3CC1(c1ccccc1)CC(/C3=N/O)/C2=N\O (stereo not drawn) | > 100 | – | – | > 100 | > 100 | > 100 | > 100 | > 100 | > 100 | > 100 | > 100
O=S(=O)(O)c1cc(O)c2c(O)c(N=Nc3cccc4ccccc34)c(S(=O)(=O)O)cc2c1 | > 100 | – | – | > 100 | > 100 | > 100 | > 100 | > 100 | > 100 | > 100 | > 100
C#CCSc1nc(N)c2ncn(C3OC(COP(=O)(O)O)C(O)C3O)c2n1 (stereo not drawn) | > 239 | > 239 | > 239 | > 239 | > 239 | > 239 | > 239 | > 239 | – | – | –
CC(NNC(=O)c1ccncc1)c1ccc(Cl)c(Cl)c1 (stereo not drawn) | > 100 | – | – | > 100 | > 100 | > 100 | > 100 | > 100 | > 100 | > 100 | > 100
CCOC(=O)C(NC(=O)CC)(Nc1ccc(S(=O)(=O)Nc2nc(C)cc(C)n2)cc1)C(F)(F)F (stereo not drawn) | > 100 | – | – | > 100 | > 100 | > 100 | > 100 | > 100 | > 100 | > 100 | > 100
C/C(=C\Cc1cc(O)ccc1O)CCc1c(C)c(O)c(O)c(C=O)c1C | > 100 | 74.6 | 56.8 | 77.8 | 98 | – | > 100 | 92.8 | – | – | –
ONC1=Nc2ccccc2OCc2cc(Br)c(Br)cc2COc2ccccc2N=C1NO | > 44.6 | – | – | 27.3 | > 52.7 | 38.9 | > 31.3 | > 54 | > 44.7 | 29.3 | > 69.8
CCOC(=O)c1c(N2CCOCC2)[nH]c(=O)c(C(c2cccs2)c2c(O)c(C(=O)OCC)c(N3CCOCC3)[nH]c2=O)c1O | > 100 | – | – | > 100 | > 100 | > 100 | > 100 | > 100 | > 100 | > 100 | > 100
S=C(N/N=C\c1ccccn1)N(Cc1ccccn1)Cc1ccccn1 | > 100 | – | – | 25.7 | 1.78 | 41.7 | 19.4 | > 42 | > 100 | 19.7 | > 74.4
N#CC12C(=O)N3C(=NC(c4ccccc4)NC3c3ccccc3)C1(C#N)C(c1ccccc1)NC1=C2CCCC1 (stereo not drawn) | > 100 | – | – | > 100 | > 100 | > 100 | > 100 | > 100 | > 100 | > 100 | > 100
CN(CCc1ccc(Cl)c(Cl)c1)CCN(C)CCN1CCCC1 | 7.27 | – | – | 40.2 | 38.5 | 34.9 | 20.1 | 28.3 | 26.3 | 86.4 | 46.3
CCOC(=O)/C(C#N)=C(/NNc1ccccc1)c1ccncc1C(=O)O | > 100 | – | – | > 100 | > 100 | > 100 | > 100 | > 100 | > 100 | > 100 | > 100
Cc1cc(O)ccc1C1(c2ccc(F)cc2)OC(=O)c2ccccc21 (stereo not drawn) | > 72.9 | – | – | 8.23 | 8.28 | 19.7 | > 100 | 18.3 | 4.38 | 16.1 | 2.41
